Source: patent US20240174728A1, “A USE OF A POLYPEPTIDE COMPOUND IN THE PREPARATION OF DRUGS FOR PREVENTING OR TREATING INFLAMMATORY BOWEL DISEASES AND RELATED INTESTINAL FIBROSIS” (Shenzhen Turier Biotech Co., Ltd., priority 2021, published 2024)
Starred links: 1 amine or outer side, 2 acyl side, 3 side chain; linkers in the order of their positions; H or OH if unused. Non-standard residues stand in square brackets, D forms with d. Groups on a side chain read outwards from the residue. Primed or numbered codes have the meaning given here. No end group written: not given here. *: point of attachment. C20 diacid = O=C(O)CCCCCCCCCCCCCCCCCCC(=O)*; γGlu = O=C(O)[C@H](CCC(=O)[*:2])N[*:1]; Iva = CC[C@](C)(N)C(=O)O; PEG2′ = not defined here; Aib = CC(C)(N)C(=O)O

What was measured:
[1] = system: DSS induced acute intestinal fibrosis model of mouse; assay: DSS induced acute intestinal fibrosis model of mouse (Example 2); type: in vivo, Balb/c mice; conditions: 3% DSS Day 1-7, compared with model group; for blue staining area of colon tissues, area ratio of blue collagen fibers to colon tissue in Masson staining (FIG. 4B): #P≤0.05; for content of serum IL-6 (FIG. 7) / content of serum MMP-12 (FIG. 7) / collagenous fiber of colon tissues, Masson stained slice (FIG. 4A) / colon Ly-6g+ cells (neutrophile granulocyte infiltration), immunohistochemical staining (FIG. 6) / colon mucous layer α-SMA protein expression, immunohistochemical staining (FIG. 5): 120 μg/kg s.c. once/day; for content of serum IL-6 (FIG. 7) / content of serum MMP-12 (FIG. 7): 9th day serum, ##P≤0.01
Source text: The DSS in this example is purchased from MP Biomedicals (CAS No.: 9011-18-1), and the positive control compound 6-thioguanine (6-TG) is a compound based on prior art and is purchased from Shanghai Aladdin Biochemical Technology Co., Ltd. (CAS No.: 154-42-7).
(§1) After 7 days of adaptive feeding, 114 Balb/c mice of 6-8 weeks age (purchased from Guangdong Medical Laboratory Animal Center, with weight approx. 16-20 g) are subjected to the experiment. Then randomly put the mice into 19 groups, with 6 mice in each group. The groups are normal group, model group, 6-TG group and polypeptide compound groups 1-16.
Model the 19 groups of mice and administer the drug to them for 8 days. In the 8 days, the normal group is given normal drinking water and is given subcutaneous injection of PBS once every day. From Day 1 to Day 7, the model group drinks 3% DSS and is given subcutaneous injection of PBS once every day. On Day 8, 3% DSS is replaced with normal drinking water and subcutaneous injection of PBS is given once. From Day 1 to Day 7, the 6-TG group drinks 3% DSS and is given 2 mg/kg 6-TG by the means of gavage once every day. On Day 8, 3% DSS is replaced with normal drinking water and 2 mg/kg 6-TG is given by the means of gavage once. From Day 1 to Day 7, the polypeptide compound groups 1-16 drink 3% DSS and are given subcutaneous injection of 120 μg/kg polypeptide compounds 1-16 once every day. On Day 8, 3% DSS is replaced with normal drinking water and subcutaneous injection of 120 μg/kg polypeptide compounds 1-16 is given once.
In the drug administration period, the randomly selected polypeptide compound groups 3, 8, 11, 12, 13 and 14 and the normal group, model group and 6-TG group are used for testing, and the body weight, feces consistency and feces OB of the mice are recorded every day. The GraphPad Prism 8.3.0 software is used to plot the data into a diagram. Feces OB is measured by the benzidine method.
On the 9th day, all mice are killed. The serums and colon tissues of the mice are collected. The colon and cecum of the mice are removed together. The colon length is measured. The GraphPad Prism 8.3.0 software is used to plot the data into a diagram.
The serums of the mice from the randomly selected polypeptide compound groups 3, 8, 11, 12, 13 and 14 of the present invention and the normal group and model group are used for cytokine test.
(§2) The colons of the mice from the randomly selected polypeptide compound groups 3, 8, 11, 12, 13 and 14 and the normal group, model group and 6-TG group in the present invention are taken. Approx. 5 mm of intestinal segment is taken from the distal end of each colon and is fixed in 10% formalin. The specimens are fixed, dehydrated, wrapped in paraffin and sliced (5 μm). Then tissue HE staining, Masson staining, α-SMA α-SMA protein immunohistochemical staining and Ly-6g protein immunohistochemical staining are completed.

[2] = system: DSS induced chronic intestinal fibrosis model of mouse; assay: DSS induced chronic intestinal fibrosis model of mouse (Example 3, three cycles); type: in vivo, Balb/c mice; conditions: 2% DSS 5 days then water 2 weeks, 3 cycles, 120 μg/kg s.c. once/day, compared with model group; for blue staining area of colon tissues, area ratio of blue collagen fibers to colon tissue in Masson staining (FIG. 11B): #P≤0.05, ##P≤0.01; for content of serum IL-6 (FIG. 13) / content of serum MMP-8 (FIG. 13): serum at end of three cycles
Source text: as §1
In the whole process, the normal group is given normal drinking water and is given subcutaneous injection PBS once every day. The model group is first given 2% DSS for 5 days and then given normal drinking water for 2 weeks. This is 1 cycle. The cycle is done 3 times. Subcutaneous injection of PBS is given once every day. The 6-TG group is first given 2% DSS for 5 days and then given normal drinking water for 2 weeks. This is 1 cycle. The cycle is done 3 times. 2 mg/kg 6-TG is given by the means of gavage once every day. The polypeptide compound groups 1-16 are first given 2% DSS for 5 days and then given normal drinking water for 2 weeks. This is 1 cycle. The cycle is done 3 times. Subcutaneous injection of 120 μg/kg polypeptide compounds 1-16 is given once every day.
During the administration period, the polypeptide compound groups 3, 8, 11, 12, 13 and 14 and the normal group, model group and 6-TG group are randomly selected, and the body weight, feces consistency and feces OB of the mice are recorded every day. The GraphPad Prism 8.3.0 software is used to plot the data into a diagram.
After completion of the 3rd cycle, the mice are dissected. The serums and colon tissues of the mice are collected. The colon and cecum are removed together. The colon length is measured. The GraphPad Prism 8.3.0 software is used to plot the data into a diagram.
The serums of the mice from the randomly selected polypeptide compound groups 3, 8, 11, 12, 13 and 14 and the normal group and model group of the present invention are used for cytokine test.
as §2, with “normal” for “normal group, model”, “model” for “6-TG”, “Masson” for “Masson staining, α-SMA α-SMA protein immunohistochemical”, “Fibronectin” for “Ly-6g”

[3] = polypeptide 120 μg/kg s.c. or 6-TG 2 mg/kg p.o. once/day, Day 1 to Day 8
[4] = polypeptide 120 μg/kg s.c. or 6-TG 2 mg/kg p.o. once/day

Compound | body weight (daily conditions, FIG. 2) [1, 3] | loose feces and hematochezia conditions (feces consistency and feces OB scores, FIG. 2) [1, 3] | colon tissue morphology, HE stained slice (FIG. 3) [1, 4] | blue staining area of colon tissues, area ratio of blue collagen fibers to colon tissue in Masson staining (FIG. 4B) [1, 4] | content of serum IL-6 (FIG. 7) [1] | content of serum MMP-12 (FIG. 7) [1] | collagenous fiber of colon tissues, Masson stained slice (FIG. 4A) [1] | colon Ly-6g+ cells (neutrophile granulocyte infiltration), immunohistochemical staining (FIG. 6) [1] | colon mucous layer α-SMA protein expression, immunohistochemical staining (FIG. 5) [1] | collagenous fiber of colon tissues, Masson stained slice (FIG. 11A) [2] | colon mucous layer Fibronectin protein expression, immunohistochemical staining (FIG. 12) [2] | colon tissue morphology, HE stained slice (FIG. 10) [2] | blue staining area of colon tissues, area ratio of blue collagen fibers to colon tissue in Masson staining (FIG. 11B) [2] | content of serum IL-6 (FIG. 13) [2] | content of serum MMP-8 (FIG. 13) [2]
Nc1nc2nc[nH]c2c(=S)[nH]1 [Compound 6-TG, 6-thioguanine, reference compound] | decrease the body weight | noticeably improve the loose feces and hematochezia conditions | relatively improved | not improved | – | – | – | – | – | – | – | – | – | – | –
His-(D-Ser)-Gln-Gly-Thr-Phe-Thr-Ser-Asp-Lys(Gly-Gly-Ser-Gly-Ser-Gly-γGlu-CO(CH2)18-COOH)-Ser-Lys-Tyr-Leu-Glu-Aib-Lys-Ala-Ala-Gln-Asp-Phe-Val-Glu-Trp-Leu-Lys-Ala-Gly-Gly-Pro-Ser-Ser-Gly-Ala-Pro-Pro-Pro-Ser (HXQGTFTSDKSKYLEXKAAQDFVEWLKAGGPSSGAPPPS; D-Ser, Aib, γGlu-C20 diacid lipidation; Compound 13; (2)..(2) X=D-Ser; (10)..(10) A side chain of Lys is linked to -Gly-Gly-Ser-Gly-Ser-Gly-AGlu-CO(CH2)18-COOH; (16)..(16) X=Aib) | – | – | become intact | noticeably decrease | clearly decreases | clearly decreases | noticeably decrease | clearly decrease | clearly decreased | noticeably decrease | clearly decreased | become intact | noticeably decrease | clearly decreases | clearly decreases
His-(D-Ser)-Gln-Gly-Thr-Phe-Thr-Ser-Asp-Lys(Gly-Gly-Ser-Gly-Ser-Gly-γGlu-CO(CH2)18-COOH)-Ser-Lys-Tyr-Leu-Glu-Aib-Lys-Ala-Ala-Gln-Asp-Phe-Val-Glu-Trp-Leu-Lys-Ala-Gly-Gly-Pro-Ser-Ser-Gly-Ala-Pro-Pro-Pro-Ser-NH2 (HXQGTFTSDKSKYLEXKAAQDFVEWLKAGGPSSGAPPPS; D-Ser, Aib, γGlu-C20 diacid lipidation, C-amide; Compound 14; (2)..(2) X=D-Ser; (10)..(10) A side chain of Lys is linked to -Gly-Gly-Ser-Gly-Ser-Gly-AGlu-CO(CH2)18-COOH; (16)..(16) X=Aib) | – | – | become intact | noticeably decrease | clearly decreases | clearly decreases | noticeably decrease | clearly decrease | clearly decreased | noticeably decrease | clearly decreased | become intact | noticeably decrease | clearly decreases | clearly decreases
His-(D-Ser)-Gln-Gly-Thr-Phe-Thr-Ser-Asp-Lys(PEG2-PEG2-γGlu-CO(CH2)18CO2H)-Ser-Lys-Tyr-Leu-Asp-Glu-Arg-Ala-Ala-Gln-Asp-Phe-Iva-Gln-Trp-Leu-Leu-Asp-Gly-Gly-Pro-Ser-Ser-Gly-Aib-Pro-Pro-Pro-Ser-NH2 (H[dS]QGTFTSDK([PEG2′-PEG2′-γGlu-C20 diacid])SKYLDERAAQDF[Iva]QWLLDGGPSSG[Aib]PPPS-NH2) [Compound 12] | – | – | become intact | noticeably decrease | clearly decreases | clearly decreases | noticeably decrease | clearly decrease | clearly decreased | noticeably decrease | clearly decreased | become intact | noticeably decrease | clearly decreases | clearly decreases
His-(D-Ser)-Gln-Gly-Thr-Phe-Thr-Ser-Asp-Lys(PEG2-PEG2-γGlu-CO(CH2)18CO2H)-Ser-Lys-Tyr-Leu-Glu-Aib-Lys-Ala-Ala-Gln-Asp-Phe-Val-Glu-Trp-Leu-Lys-Ala-Gly-Gly-Pro-Ser-Ser-Gly-Ala-Pro-Pro-Pro-Ser-NH2 (H[dS]QGTFTSDK([PEG2′-PEG2′-γGlu-C20 diacid])SKYLE[Aib]KAAQDFVEWLKAGGPSSGAPPPS-NH2) [Compound 3] | – | – | become intact | noticeably decrease | clearly decreases | clearly decreases | noticeably decrease | clearly decrease | clearly decreased | noticeably decrease | clearly decreased | become intact | noticeably decrease | clearly decreases | clearly decreases
